Experimental data reported in a compilation of properties of binary mixtures (doi:10.1021/acs.jpcb.7b01654).

Assay: xn = mol fraction of the nth substance listed
Settings: 100 kPa

## CC[n+]1ccn(C)c1.O=S(=O)([N-]S(=O)(=O)C(F)(F)F)C(F)(F)F + CCCCCCCCCCCC[n+]1ccn(C)c1.O=S(=O)([N-]S(=O)(=O)C(F)(F)F)C(F)(F)F
283 K, x2 = 0
  viscosity: 56.8 mPa·s
288 K, x2 = 0
  viscosity: 44.6 mPa·s
298 K, x2 = 0
  viscosity: 29.7 mPa·s
303 K, x2 = 0
  viscosity: 24.8 mPa·s
308 K, x2 = 0
  viscosity: 21 mPa·s
318 K, x2 = 0
  viscosity: 15.57 mPa·s
323 K, x2 = 0
  viscosity: 13.28 mPa·s

## CCCCCCCCCCCC[n+]1ccn(C)c1.O=S(=O)([N-]S(=O)(=O)C(F)(F)F)C(F)(F)F + CC[n+]1ccn(C)c1.O=S(=O)([N-]S(=O)(=O)C(F)(F)F)C(F)(F)F
293 K, x1 = 0.01
  viscosity: 36.2 mPa·s
293 K, x1 = 0.04
  viscosity: 37.9 mPa·s
293 K, x1 = 0.08
  viscosity: 41.4 mPa·s
293 K, x1 = 0.16
  viscosity: 47.6 mPa·s
293 K, x1 = 0.24
  viscosity: 57.4 mPa·s
293 K, x1 = 0.32
  viscosity: 69.1 mPa·s
293 K, x1 = 0.43
  viscosity: 85.1 mPa·s
293 K, x1 = 0.52
  viscosity: 94.7 mPa·s
293 K, x1 = 0.63
  viscosity: 116 mPa·s
293 K, x1 = 0.74
  viscosity: 137 mPa·s
293 K, x1 = 0.87
  viscosity: 158 mPa·s
293 K, x1 = 0.92
  viscosity: 182 mPa·s
293 K, x1 = 1
  viscosity: 193 mPa·s
293 K, x2 = 0.01
  viscosity: 199 mPa·s
298 K, x1 = 0.01
  viscosity: 29.4 mPa·s
298 K, x1 = 0.04
  viscosity: 30.8 mPa·s
298 K, x1 = 0.08
  viscosity: 33.5 mPa·s
298 K, x1 = 0.24
  viscosity: 45.7 mPa·s
298 K, x1 = 0.32
  viscosity: 54.2 mPa·s
298 K, x1 = 0.43
  viscosity: 66 mPa·s
298 K, x1 = 0.52
  viscosity: 73.2 mPa·s
298 K, x1 = 0.63
  viscosity: 88.7 mPa·s
298 K, x1 = 0.74
  viscosity: 104 mPa·s
298 K, x1 = 0.87
  viscosity: 119 mPa·s
298 K, x1 = 0.92
  viscosity: 135 mPa·s
298 K, x1 = 0.96
  viscosity: 149 mPa·s
298 K, x1 = 1
  viscosity: 143 mPa·s
298 K, x2 = 0.01
  viscosity: 149 mPa·s
303 K, x1 = 0.01
  viscosity: 24.3 mPa·s
303 K, x1 = 0.04
  viscosity: 25.5 mPa·s
303 K, x1 = 0.08
  viscosity: 27.6 mPa·s
303 K, x1 = 0.32
  viscosity: 43.6 mPa·s
303 K, x1 = 0.43
  viscosity: 52.4 mPa·s
303 K, x1 = 0.52
  viscosity: 57.7 mPa·s
303 K, x1 = 0.63
  viscosity: 69.3 mPa·s
303 K, x1 = 0.74
  viscosity: 80.6 mPa·s
303 K, x1 = 0.87
  viscosity: 91.7 mPa·s
303 K, x1 = 0.92
  viscosity: 102 mPa·s
303 K, x1 = 0.96
  viscosity: 114 mPa·s
303 K, x2 = 0.01
  viscosity: 113 mPa·s
308 K, x1 = 0.01
  viscosity: 20.5 mPa·s
308 K, x1 = 0.04
  viscosity: 21.5 mPa·s
308 K, x1 = 0.08
  viscosity: 23.2 mPa·s
308 K, x1 = 0.16
  viscosity: 26.1 mPa·s
308 K, x1 = 0.24
  viscosity: 30.7 mPa·s
308 K, x1 = 0.32
  viscosity: 35.6 mPa·s
308 K, x1 = 0.43
  viscosity: 42.4 mPa·s
308 K, x1 = 0.52
  viscosity: 46.6 mPa·s
308 K, x1 = 0.63
  viscosity: 55.3 mPa·s
308 K, x1 = 0.87
  viscosity: 71.9 mPa·s
308 K, x1 = 0.92
  viscosity: 79 mPa·s
308 K, x1 = 1
  viscosity: 84 mPa·s
308 K, x2 = 0.01
  viscosity: 88.4 mPa·s
313 K, x1 = 0.01
  viscosity: 17.6 mPa·s
313 K, x1 = 0.04
  viscosity: 18.4 mPa·s
313 K, x1 = 0.08
  viscosity: 19.8 mPa·s
313 K, x1 = 0.16
  viscosity: 22.1 mPa·s
313 K, x1 = 0.24
  viscosity: 25.7 mPa·s
313 K, x1 = 0.32
  viscosity: 29.6 mPa·s
313 K, x1 = 0.43
  viscosity: 34.8 mPa·s
313 K, x1 = 0.52
  viscosity: 38.3 mPa·s
313 K, x1 = 0.63
  viscosity: 44.8 mPa·s
313 K, x1 = 0.74
  viscosity: 51.3 mPa·s
313 K, x1 = 0.87
  viscosity: 57.4 mPa·s
313 K, x1 = 0.92
  viscosity: 62.1 mPa·s
313 K, x1 = 1
  viscosity: 66.2 mPa·s
313 K, x2 = 0.01
  viscosity: 70 mPa·s
318 K, x1 = 0.01
  viscosity: 15.26 mPa·s
318 K, x1 = 0.04
  viscosity: 15.96 mPa·s
318 K, x1 = 0.08
  viscosity: 17 mPa·s
318 K, x1 = 0.16
  viscosity: 19 mPa·s
318 K, x1 = 0.24
  viscosity: 21.9 mPa·s
318 K, x1 = 0.32
  viscosity: 24.8 mPa·s
318 K, x1 = 0.43
  viscosity: 28.9 mPa·s
318 K, x1 = 0.52
  viscosity: 31.7 mPa·s
318 K, x1 = 0.63
  viscosity: 36.9 mPa·s
318 K, x1 = 0.74
  viscosity: 42 mPa·s
318 K, x1 = 0.87
  viscosity: 46.5 mPa·s
318 K, x1 = 0.92
  viscosity: 49.8 mPa·s
318 K, x1 = 0.96
  viscosity: 56.2 mPa·s
318 K, x1 = 1
  viscosity: 53 mPa·s
318 K, x2 = 0.01
  viscosity: 56.3 mPa·s
323 K, x1 = 0.01
  viscosity: 13.19 mPa·s
323 K, x1 = 0.04
  viscosity: 13.82 mPa·s
323 K, x1 = 0.16
  viscosity: 16 mPa·s
323 K, x1 = 0.24
  viscosity: 18.6 mPa·s
323 K, x1 = 0.43
  viscosity: 23.8 mPa·s
323 K, x1 = 0.52
  viscosity: 26.1 mPa·s
323 K, x1 = 0.63
  viscosity: 30.3 mPa·s
323 K, x1 = 0.87
  viscosity: 37.4 mPa·s
323 K, x1 = 0.92
  viscosity: 40.2 mPa·s
323 K, x1 = 0.96
  viscosity: 45.5 mPa·s
323 K, x1 = 1
  viscosity: 42.65 mPa·s
328 K, x1 = 0.01
  viscosity: 11.69 mPa·s
328 K, x1 = 0.08
  viscosity: 12.89 mPa·s
328 K, x1 = 0.16
  viscosity: 14.06 mPa·s
328 K, x1 = 0.24
  viscosity: 16.17 mPa·s
328 K, x1 = 0.32
  viscosity: 18 mPa·s
328 K, x1 = 0.43
  viscosity: 20.4 mPa·s
328 K, x1 = 0.52
  viscosity: 22.2 mPa·s
328 K, x1 = 0.63
  viscosity: 25.5 mPa·s
328 K, x1 = 0.74
  viscosity: 28.7 mPa·s
328 K, x1 = 0.87
  viscosity: 31.1 mPa·s
328 K, x1 = 0.92
  viscosity: 33 mPa·s
328 K, x1 = 0.96
  viscosity: 37.4 mPa·s
328 K, x1 = 1
  viscosity: 34.9 mPa·s
328 K, x2 = 0.01
  viscosity: 37.5 mPa·s
333 K, x1 = 0.01
  viscosity: 10.4 mPa·s
333 K, x1 = 0.04
  viscosity: 10.81 mPa·s
333 K, x1 = 0.08
  viscosity: 11.37 mPa·s
333 K, x1 = 0.24
  viscosity: 14.13 mPa·s
333 K, x1 = 0.32
  viscosity: 15.5 mPa·s
333 K, x1 = 0.43
  viscosity: 17.6 mPa·s
333 K, x1 = 0.52
  viscosity: 19.1 mPa·s
333 K, x1 = 0.63
  viscosity: 21.7 mPa·s
333 K, x1 = 0.74
  viscosity: 24.1 mPa·s
333 K, x1 = 0.87
  viscosity: 26.1 mPa·s
333 K, x1 = 0.96
  viscosity: 31.2 mPa·s
333 K, x1 = 1
  viscosity: 28.87 mPa·s
333 K, x2 = 0.01
  viscosity: 31.3 mPa·s
